From PMC4906375, “Contribution of Amphipathicity and Hydrophobicity to the Antimicrobial Activity and Cytotoxicity of β-Hairpin Peptides” (ACS Infectious Diseases, 2016)
Values after ≈ are worked out from the molar mass of the structure shown.

Tests used:
B. subtilis ATCC 6051 = assay: microbe, parasite or virus in culture; format: cell-based, Bacillus subtilis; conditions: Bacillus subtilis, ATCC6051
Method: (§1) Both antibacterial and antifungal MIC assays were performed by a broth microdilution plate based method as per CLSI guidelines for antimicrobial susceptibility testing.[53],[54] […] Full assay details are included in the Supporting Information with a full list of strains tested in Table S1.
(§2) Antibacterial assay (Minimum Inhibitory Concentration [MIC]).
(§3) MIC assay was performed by a broth microdilution plate based method as per CLSI guidelines for antimicrobial susceptibility testing of aerobic bacteria.1 Compounds were prepared at 1.28 mg/mL solution in water. The tested strains, Table S1, were cultured in Luria broth (LB) (In Vitro Technologies, USB75852), at 37 °C overnight. A sample of culture was then diluted 40Pfold in fresh Muller Hinton broth (MHB) (Bacto laboratories, 211443) and incubated at 37 °C for 1.5P2 h. The compounds were serially diluted twoPfold across the wells, with compound concentrations ranging from 0.015 µg/mL to 512 µg/mL, plated in duplicate. The resultant midPlog phase cultures were diluted to the final concentration of 1×10^6 CFU/mL, then 50 µL was added to each well of the compoundP containing 96Pwell plates (Corning 3641, NonPbinding Surface [NBS]), giving a final compound concentration range of 0.008 µg/mL to 256 µg/mL and 5x10^5 CFU/mL. All the plates were covered and incubated at 37 °C for 18 h. MICs were determined visually, being defined as the lowest concentration showing no visible growth. Resazurin was added at 0.001% final concentration to each well and incubated for 2 h before MICs were rePread for confirmation using the colour change from blue to pink to indicate wells containing viable cells. The resazurin assay was added in some wells where some form of precipitate was present in otherwise clear wells, making it difficult to ascertain which wells had visible […]
(§4) Antifungal assay (Minimum Inhibitory Concentration [MIC]). MIC assay was performed by a broth microdilution plate based method as per CLSI guidelines for antimicrobial susceptibility testing.2 Fungi strains, Table S1, were cultured for 3 days on Yeast ExtractPPeptone Dextrose (YPD) (SigmaPAldrich, Y1500) agar at 30 °C. A yeast suspension of 1x10^6 to 5x10^6 CFU/mL was prepared from five colonies. These stock suspensions were diluted with Yeast Nitrogen Base (YNB) (Becton Dickinson, 233520) broth to a final concentration of 2.5 ×10^3 CFU/mL. All samples, compounds and standards were plated in 96Pwell plates (Corning 3641, NonPbinding Surface [NBS]), by adding 10 µL of 1.28 mg/mL stock solution to each well and 90 µL of media. Then, the samples were serial diluted (1:2) in 12 concentrations across the plate. The standard antifungal ranged from 256

[1] = test system: S. aureus ATCC 43300 (MRSA); assay: microbe, parasite or virus in culture; format: cell-based, Staphylococcus aureus; conditions: Staphylococcus aureus
Method: as §1, §2, §3, §4

[2] = test system: E. coli ATCC 25922 (control strain); format: cell-based, Escherichia coli; conditions: E. coli ATCC 25922 (control strain); n = 4
Method: as §1, §2, §3, §4

[3] = test system: E. coli ATCC 700926 (K12); format: cell-based, Escherichia coli; conditions: E. coli ATCC 700926 (K12); n = 4
Method: as §1, §2, §3, §4

E. coli MB 4902 (ΔlpxC) = format: cell-based, Escherichia coli; conditions: n = 4
Method: as §1, §2, §3, §4

K. pneumoniae ATCC 13883 = format: cell-based, Klebsiella pneumoniae; conditions: K. pneumoniae ATCC 13883; n = 4
Method: as §1, §2, §3, §4

[4] = test system: K. pneumoniae ATCC 700603 (MDR); format: cell-based, Klebsiella pneumoniae; conditions: n = 4
Method: as §1, §2, §3, §4

[5] = test system: K. pneumoniae BAA 2146 (NDM-1 pos); format: cell-based, Klebsiella pneumoniae; conditions: n = 4
Method: as §1, §2, §3, §4

A. baumannii ATCC 19606 = format: cell-based, Acinetobacter baumannii; conditions: A. baumannii ATCC 19606; n = 4
Method: as §1, §2, §3, §4

P. aeruginosa ATCC 27853 = format: cell-based, Pseudomonas aeruginosa; conditions: P. aeruginosa ATCC 27853; n = 4
Method: as §1, §2, §3, §4

C. albicans ATCC 90028 = assay: microbe, parasite or virus in culture; format: cell-based, Candida albicans; conditions: Candida albicans, ATCC90028; C. albicans ATCC 90028; n = 4; read-out: MIC
Method: as §1, §2, §3
as §4, with “256 […]” for “256”
(§5) µg/mL to 0.12 µg/mL and compounds from 128 µg/mL to 0.06 µg/mL with final volumes of 50 µL per well, plated in duplicate. Then, 50 µL of the fungi suspension that was previously prepared in YNB broth to the final concentration of 2.5×10^3 CFU/mL, was added to each well of the compoundPcontaining plates, giving a final standard compound concentration range of 128 µg/mL to 0.06 µg/mL and tested compound from 64 µg/mL to 0.03 µg/mL. Plates were covered and incubated at 35 °C for 24 h. Candida albicans MICs were determined by measuring the absorbance at OD530. For Cryptococcus neoformans 10 µL of 0.06 % resazurin were added to the 24 h incubated plates. Then, these plates were incubated for another 3 h.
(§6) Cryptococcus neoformans MICs were determined by measuring the absorbance at OD570P600. […]

[6] = test system: C. neoformans ATCC 208821; assay: microbe, parasite or virus in culture; format: cell-based, Cryptococcus neoformans; conditions: Cryptococcus neoformans, ATCC208821; C. neoformans ATCC 208821; n = 4; read-out: MIC
Method: as §1, §2, §3
as §4, with “256 […]” for “256”
as §5, §6

CN[C@H](CC(C)C)C(=O)N[C@H]1C(=O)N[C@@H](CC(N)=O)C(=O)N[C@H]2C(=O)N[C@H]3C(=O)N[C@H](C(=O)N[C@H](C(=O)O)c4cc(O)cc(O)c4-c4cc3ccc4O)[C@H](O)c3ccc(c(Cl)c3)Oc3cc2cc(c3O[C@@H]2O[C@H](CO)[C@@H](O)[C@H](O)[C@H]2O[C@H]2C[C@](C)(N)[C@H](O)[C@H](C)O2)Oc2ccc(cc2Cl)[C@H]1O [vancomycin, reference compound] gave an MIC (B. subtilis ATCC 6051) of 0.25 µg/mL (≈ 0.173 µM) and an MIC [1] of 1 µg/mL (≈ 0.69 µM).

Work on colistin [reference compound] yielded an MIC [2] of 0.03 µg/mL, an MIC [3] of 0.03 µg/mL and an MIC (E. coli MB 4902 (ΔlpxC)) of 0.009 µg/mL. It also gave an MIC (K. pneumoniae ATCC 13883) of 0.5 µg/mL, an MIC [4] of 0.125 µg/mL and an MIC [5] of 0.03 µg/mL. The MIC (A. baumannii ATCC 19606) was 0.03 µg/mL and the MIC (P. aeruginosa ATCC 27853) was 0.25 µg/mL.

For C[C@@H]1[C@H](O)[C@@H](C)/C=C/C=C/C=C/C=C/C=C/C=C/C=C/[C@H](O[C@@H]2O[C@H](C)[C@@H](O)[C@H](N)[C@@H]2O)C[C@@H]2O[C@](O)(C[C@@H](O)C[C@@H](O)[C@H](O)CC[C@@H](O)C[C@@H](O)CC(=O)O[C@H]1C)C[C@H](O)[C@H]2C(=O)O [amphotericin B, reference compound], the MIC (C. albicans ATCC 90028) was 0.06 µg/mL (≈ 0.0649 µM) and the MIC [6] was 0.015 µg/mL (≈ 0.0162 µM).
